Results: the supplement of paper PMC8882468

Tests used:
Experiment in all cases: CTG-3D luminescence at 96 h relative to day-0 seeding control (ratio to day 0); higher = more growth / less cytotoxicity; PDxO 3D drug screen, 96 h, CTG-3D normalised to day-0 seeding control.
[1] = test system: HCI-003.E2 (organoid from an ER-positive breast cancer xenograft)
[2] = test system: HCI-008 (organoid from a HER2-enriched breast cancer xenograft)
[3] = test system: HCI-010 (organoid from a breast cancer xenograft)
[4] = test system: HCI-012 (organoid from a breast cancer xenograft)
[5] = test system: HCI-016 (organoid from a triple-negative breast cancer xenograft)
[6] = test system: HCI-027 (organoid from a triple-negative breast cancer xenograft)

C=CC(=O)N1CCC[C@@H](n2nc(-c3ccc(Oc4ccccc4)cc3)c3c(N)ncnc32)C1 [ibrutinib]
[1]
Conditions | CTG-3D luminescence at 96 h
12.5 pM | 2.16
0.00025 µM | 2.46
0.005 µM | 2.1
0.1 µM | 1.93
1 µM | 1.86
10 µM | 0.903
100 µM | -0.00322
625 fM | 2.1

CTG-3D luminescence at 96 h
Conditions | 12.5 pM | 0.00025 µM | 0.005 µM | 0.1 µM | 1 µM | 10 µM | 100 µM | 625 fM
[2], days in culture: 228 | 1.59 | 1.84 | 1.21 | 1.18 | 1.26 | 1 | -0.0059 | 1.66
[2], days in culture: 244 | 1.25 | 1.71 | 1.76 | 1.65 | 1.52 | 1.3 | -0.0038 | 1.98
[3], days in culture: 52 | 2.16 | 2.15 | 2.34 | 2.35 | 2.08 | 1.47 | -0.00732 | 2.5
[3], days in culture: 65 | 1.67 | 1.66 | 1.79 | 1.73 | 1.79 | 0.888 | -0.00863 | 1.69
[3], days in culture: 103 | 3.5 | 3.57 | 3.54 | 3.41 | 3.26 | 1.51 | -0.0156 | 3.23
[4], days in culture: 143 | 1.95 | 2 | 1.95 | 2.2 | 1.64 | 1.12 | -0.0164 | 1.75
[4], days in culture: 162 | 2.49 | 1.94 | 2.13 | 2.98 | 1.72 | 1.53 | -0.0115 | 2.67
[4], days in culture: 201 | 2.76 | 1.92 | 1.72 | 1.69 | 2.52 | 0.842 | -0.018 | 1.54
[5], days in culture: 153 | 3.08 | 1.69 | 2.64 | 2.11 | 2.69 | 1.59 | -0.00474 | 2.85
[5], days in culture: 172 | 1.97 | 1.45 | 2 | 1.61 | 1.46 | 1.04 | -0.00481 | 1.49
[5], days in culture: 190 | 1.59 | 1.26 | 1.45 | 1.11 | 0.915 | 0.881 | -0.00814 | 1.37
[5], days in culture: 199 | 1.58 | 1.62 | 1.43 | 1.26 | 1.35 | 1.21 | -0.00558 | 1.72
[6], days in culture: 176 | 1.63 | 1.35 | 2.52 | 1.59 | 1.09 | 0.54 | 0.00595 | 1.73
[6], days in culture: 194 | 1.68 | 1.52 | 1.52 | 1.6 | 1.98 | 1.69 | 0.00765 | 1.76
[6], days in culture: 201 | 2.12 | 1.48 | 1.94 | 1.93 | 1.49 | 1.41 | 0.00768 | 2.11

O=C(/C=C/c1cccnc1)NCCCCC1CCN(C(=O)c2ccccc2)CC1 [FK866]
[1]
Conditions | CTG-3D luminescence at 96 h
12.5 pM | 2.05
0.00025 µM | 2.19
0.005 µM | 0.395
0.1 µM | 0.38
1 µM | 0.268
10 µM | 0.302
100 µM | 0.113
625 fM | 1.51

CTG-3D luminescence at 96 h
Conditions | 12.5 pM | 0.00025 µM | 0.005 µM | 0.1 µM | 1 µM | 10 µM | 100 µM | 625 fM
[2], days in culture: 228 | 1.646 | 1.91 | 0.904 | 0.206 | 0.125 | 0.168 | 0.162 | 1.38
[2], days in culture: 244 | 1.37 | 1.87 | 1.86 | 0.263 | 0.186 | 0.197 | 0.173 | 1.82
[3], days in culture: 52 | 2.32 | 2.72 | 1.25 | 0.204 | 0.17 | 0.139 | 0.119 | 2.36
[3], days in culture: 65 | 1.59 | 1.73 | 0.682 | 0.29 | 0.227 | 0.202 | 0.166 | 1.66
[3], days in culture: 103 | 3.4 | 3.45 | 2.07 | 0.97 | 0.904 | 0.705 | 0.347 | 3.29
[4], days in culture: 143 | 1.77 | 2.17 | 0.328 | 0.0872 | 0.0769 | 0.0863 | 0.175 | 1.84
[4], days in culture: 162 | 2.18 | 2.1 | 0.129 | 0.0723 | 0.0448 | 0.085 | 0.127 | 2.72
[4], days in culture: 201 | 2.67 | 0.11 | 0.33 | 0.0389 | 0.128 | 0.0435 | 0.115 | 1.67
[5], days in culture: 153 | 2.99 | 0.401 | 0.569 | 0.026 | 0.0254 | 0.0134 | 0.0183 | 2.29
[5], days in culture: 172 | 2.21 | 1.75 | 0.508 | 0.0341 | 0.0259 | 0.0131 | 0.022 | 1.55
[5], days in culture: 190 | 1.78 | 1.44 | 0.967 | 0.0245 | 0.0257 | 0.0168 | 0.037 | 1.08
[5], days in culture: 199 | 1.45 | 1.44 | 0.503 | 0.0273 | 0.0129 | 0.013 | 0.0134 | 1.79
[6], days in culture: 176 | 1.98 | 1.8 | 0.365 | 0.104 | 0.104 | 0.0553 | 0.082 | 2.22
[6], days in culture: 194 | 1.77 | 1.47 | 0.26 | 0.049 | 0.0511 | 0.0527 | 0.0718 | 1.63
[6], days in culture: 201 | 1.55 | 1.66 | 0.166 | 0.0645 | 0.0296 | 0.0561 | 0.0649 | 1.74

C/C=C1\NC(=O)[C@H]2CSSCC/C=C/[C@H](CC(=O)N[C@H](C(C)C)C(=O)N2)OC(=O)[C@H](C(C)C)NC1=O [romidepsin]
[1]
Conditions | CTG-3D luminescence at 96 h
12.5 pM | 1.2
0.00025 µM | 0.624
0.005 µM | 0.21
0.1 µM | 0.0473
1 µM | 0.0243
10 µM | 0.0035
100 µM | -0.00659
625 fM | 0.719

CTG-3D luminescence at 96 h
Conditions | 12.5 pM | 0.00025 µM | 0.005 µM | 0.1 µM | 1 µM | 10 µM | 100 µM | 625 fM
[2], days in culture: 228 | 1.78 | 1.7887 | 0.632 | 0.0457 | 0.0185 | 0.0061 | -0.00528 | 2.13
[2], days in culture: 244 | 1.41 | 2.08 | 0.607 | 0.0448 | 0.0206 | 0.00309 | -0.0086 | 2.35
[3], days in culture: 52 | 1.97 | 2.29 | 1.13 | 0.189 | 0.128 | 0.0169 | -0.00333 | 1.81
[3], days in culture: 65 | 1.32 | 1.34 | 0.941 | 0.326 | 0.276 | 0.0354 | -0.00525 | 1.52
[3], days in culture: 103 | 2.94 | 3.14 | 1.69 | 0.316 | 0.226 | 0.0082 | -0.00621 | 2.77
[4], days in culture: 143 | 2.11 | 2.61 | 0.686 | 0.0407 | 0.0227 | 0.0103 | -0.00702 | 1.66
[4], days in culture: 162 | 2.25 | 2.64 | 0.53 | 0.0384 | 0.0172 | 0.00772 | -0.00766 | 2.87
[4], days in culture: 201 | 2.24 | 0.795 | 0.629 | -0.145 | -0.118 | -0.159 | -0.214 | 1.98
[5], days in culture: 153 | 2.79 | 0.384 | 0.563 | 0.106 | 0.214 | -0.00553 | -0.0108 | 2.21
[5], days in culture: 172 | 2.29 | 1.31 | 0.385 | 0.107 | 0.127 | 0.00531 | -0.0131 | 1.69
[5], days in culture: 190 | 1.76 | 1.62 | 0.684 | 0.0156 | 0.0109 | -0.0529 | -0.107 | 1.55
[5], days in culture: 199 | 2 | 2.14 | 0.631 | 0.071 | 0.0656 | -0.00558 | -0.0191 | 2.15
[6], days in culture: 176 | 2.43 | 1.27 | 0.05 | 0.0166 | 0.376 | -0.165 | -0.237 | 2.12
[6], days in culture: 194 | 2.63 | 1.95 | 0.739 | 0.437 | 0.349 | -0.0181 | -0.0853 | 2.17
[6], days in culture: 201 | 3.22 | 2.72 | 1.35 | 0.611 | 0.234 | 0.136 | -0.0194 | 3.25

CNC(=O)c1cccc(-c2ccc3c(N4CCOC[C@@H]4C)nc(N4CCOC[C@@H]4C)nc3n2)c1 [vistusertib]
[1]
Conditions | CTG-3D luminescence at 96 h
12.5 pM | 2.24
0.00025 µM | 2.07
0.005 µM | 2.3
0.1 µM | 1.4
1 µM | 0.0994
10 µM | 0.0512
100 µM | 0.0137
625 fM | 2.1

CTG-3D luminescence at 96 h
Conditions | 12.5 pM | 0.00025 µM | 0.005 µM | 0.1 µM | 1 µM | 10 µM | 100 µM | 625 fM
[2], days in culture: 228 | 1.54 | 1.64 | 1.41 | 0.913 | 0.71 | 0.548 | 0.289 | 1.66
[2], days in culture: 244 | 1.33 | 1.73 | 2.19 | 1.74 | 1.08 | 0.812 | 0.329 | 2.1
[3], days in culture: 52 | 2.1 | 2.32 | 2.14 | 1.57 | 0.904 | 0.76 | 0.17 | 2.19
[3], days in culture: 65 | 1.67 | 1.73 | 1.69 | 1.14 | 0.708 | 0.543 | 0.0432 | 1.68
[3], days in culture: 103 | 3.33 | 3.37 | 3.25 | 1.95 | 1.51 | 1.24 | 0.419 | 3.04
[4], days in culture: 143 | 2.08 | 2.14 | 2.4 | 1.9 | 1.14 | 0.875 | 0.292 | 1.87
[4], days in culture: 162 | 2.68 | 2.6 | 1.94 | 2.8 | 1.21 | 1.06 | 0.318 | 3.34
[4], days in culture: 201 | 2.73 | 1.99 | 1.53 | 1.7 | 1.42 | 0.57 | 0.745 | 1.48
[5], days in culture: 153 | 2.83 | 1.97 | 2.44 | 1.36 | 1.01 | 1.52 | 0.486 | 1.72
[5], days in culture: 172 | 2.41 | 1.96 | 1.67 | 1.67 | 0.7 | 0.422 | 0.424 | 1.42
[5], days in culture: 190 | 1.92 | 1.44 | 1.77 | 1.19 | 0.838 | 0.424 | 0.374 | 1.44
[5], days in culture: 199 | 1.72 | 1.65 | 1.77 | 1.76 | 0.654 | 0.556 | 0.348 | 1.81
[6], days in culture: 176 | 2.07 | 1.54 | 3.05 | 1.73 | 0.81 | 0.32 | 0.123 | 2.96
[6], days in culture: 194 | 1.93 | 1.49 | 1.77 | 1.58 | 1.03 | 0.803 | 0.226 | 1.84
[6], days in culture: 201 | 1.74 | 2.52 | 2.47 | 2.11 | 1.06 | 0.501 | 0.169 | 2.26
